Legend:
[1] = system: Alternaria solani; assay: Alternaria solani / tomato / leaf disc (early blight); format: in vivo; conditions: 200 ppm; tomato leaf disks cv. Baby, inoculated 2 days after application; compared to untreated control
Description: Leaf disks or leaf segments of various plant species are cut from plants grown in a greenhouse. The cut leaf disks or segments are placed in multiwell plates (24-well format) onto water agar. The leaf disks are sprayed with a test solution before (preventative) or after (curative) inoculation. Compounds to be tested are prepared as DMSO solutions (max. 10 mg/mL) which are diluted to the appropriate concentration with 0.025% Tween20 just before spraying. The inoculated leaf disks or segments are incubated under defined conditions (temperature, relative humidity, light, etc.) according to the respective test system. A single evaluation of disease level is carried out 3 to 14 days after inoculation, depending on the pathosystem. Percent disease control relative to the untreated check leaf disks or segments is then calculated. Tomato leaf disks cv. Baby are placed on agar in multiwell plates (24-well format) and sprayed with the formulated test compound diluted in water. The leaf disks are inoculated with a spore suspension of the fungus 2 days after application. The inoculated leaf disks are incubated at 23° C./21° C.

[2] = system: Botryotinia fuckeliana (Botrytis cinerea); assay: Botryotinia fuckeliana (Botrytis cinerea) / liquid culture (gray mould); format: cell-based; conditions: liquid culture (Vogels broth), growth inhibition photometrically 3-4 days after application, compared to untreated control
Description: (§1) Mycelia fragments or conidia suspensions of a fungus prepared either freshly from liquid cultures of the fungus or from cryogenic storage, are directly mixed into nutrient broth. DMSO solutions of the test compound (max. 10 mg/mL) are diluted with 0.025% Tween20 by a factor of 50 and 10 μL of this solution is pipetted into a microtiter plate (96-well format). The nutrient broth containing the fungal spores/mycelia fragments is then added to give an end concentration of the tested compound. The test plates are incubated in the dark at 24° C. and 96% relative humidity. The inhibition of fungal growth is determined photometrically after 2 to 7 days, depending on the pathosystem, and percent antifungal activity relative to the untreated check is calculated. Conidia of the fungus from cryogenic storage are directly mixed into nutrient broth (Vogels broth). After placing a (DMSO) solution of test compound into a microtiter plate (96-well format), the nutrient broth containing the fungal spores is added. The test plates are incubated at 24° C. and the inhibition of growth is determined photometrically 3-4 days after application.

[3] = system: Glomerella lagenarium (Colletotrichum lagenarium); assay: Glomerella lagenarium (Colletotrichum lagenarium) / liquid culture (anthracnose); format: cell-based; conditions: Colletotrichum orbiculare, liquid culture (PDB), growth inhibition photometrically 3-4 days after application, compared to untreated control
Description: as §1, with “nutrient broth (PDB potato dextrose broth). After” for “nutrient broth (Vogels broth). After”, “growth is measured photometrically 3-4” for “growth is determined photometrically 3-4”

[4] = system: Pyrenophora teres; assay: Pyrenophora teres / barley / leaf disc preventative (net blotch); format: in vivo; conditions: 200 ppm, barley leaf segments cv. Hasso, inoculated 2 days after application, compared to untreated control

Cc1cc2ncc(Oc3cccc(C4CC4)c3)c(C(=O)NCC(F)c3ccc(Cl)cc3Cl)n2n1 (stereo not shown) [Compound P-1.13, 6-(3-cyclopropylphenoxy)-N-[2-(2,4-dichlorophenyl)-2-fluoro-ethyl]-2-methyl-pyrazolo[1,5-a]pyrimidine-7-carboxamide]
control of Alternaria solani [1]: at least 80%
inhibition of growth at 20 ppm [2]: ≥ 80%
inhibition of growth at 20 ppm [3]: ≥ 80%
control of Pyrenophora teres [4]: at least 80%

— US20250368652A1, “MICROBIOCIDAL BICYCLIC HETEROCYCLIC CARBOXAMIDE DERIVATIVES” (SYNGENTA CROP PROTECTION AG, priority 2022, published 2025)
